# Source: patent US8703970B2, “Compounds having photochemically removable protecting groups based on an electrocyclic reaction between a chromophore attached via an anilide group to a benzothiophene ring” (Marquette University, priority 2012, dated 2014)
# Like-named read-outs stand apart in the source and are kept apart here.
# Tests used:
# Format in all cases: physicochemical
# [1] = Preparative photolysis with Pyrex-filtered Hanovia medium pressure mercury lamp, products quantified by NMR; conditions: N2 saturated aqueous 100 mM phosphate buffer (pH 7) in CH3CN; NMR integration
# Experimental: (§1) For the ester ε=5600 M^−1 cm^−1, while the acid has ε=4200 M^−1 cm^−1. For preparative photolyses Pyrex-filtered light from a Hanovia medium pressure mercury lamp was used. A sunlamp was also effective at photolysing all of the compounds in the study. Quantum yields were determined at 390 nm using a monochromator for wavelength selection utilizing a high pressure mercury lamp as the light source.
# (§2) Similarly, preparative photolysis of […] acid 9 (LG^−=Cl^−) in N2 saturated 75% H2O in CH3CN containing 100 mM phosphate buffer (pH 7) gave the single regioisomeric photoproduct 27 in 98% yield by NMR integration, as above for 8 (LG^−=Cl^−). The regiospecificity was again established by 600 MHz ^1H NMR COSY. […] Photolysis of acid 9 (LG^−=PhS^−, HS^−, PhCH2S^−) under the same conditions as 8 (LG^−=Cl^−) also gave photoproduct 27 in 98-100% yields upon expulsion of these thiolate leaving groups. For acid 9 (LG^−=PhCH2S^−) the released benzyl thiol was quantified in photolyses of 4.5×10^−3 M solutions of 35% D2O in CD3CN containing phosphate buffer (as above) contained in NMR tubes. Yields were 96% thiol and 99% of 27 at 100% conversion of reactant by ^1H NMR spectroscopy. Very similar results were found when DMSO-d6 was the photolysis solvent.
# The regiospecific formation of 26 or 27 in the preparative photolyses of ester 8 or acids 9 requires the presence of the ester and carboxylic acid substituents attached to the C-6 position of the benzothiophene ring system of the reactants. In contrast, photolyses of the unsubstituted benzothiophene ring system 7 (LG^−=Cl^−) in 16% water containing 100 mM phosphate buffer in CH3CN gave both regioisomeric photoproducts 30 and 31 as a 42:58 mixture, respectively, in 100% yield according to 400 MHz ^1H NMR spectroscopy (Scheme 6).
# To determine whether a “heavy atom effect” promoted intersystem crossing of the singlet excited state to the triplet excited state, work focused upon the C-7 bromide of thioxanthone ester 10 (LG^−=Cl^−). Preparative photolysis of ester 10 in N2 saturated 19% H2O in CH3CN containing 100 mM phosphate buffer (pH 7), as above for ester 8 (LG^−=Cl^−), exclusively gave regioisomer 32 in 99% yield, and 33 was not observed by ^1H NMR spectroscopy of the photolysate (Scheme 7).
# A 0.010 M solution of 8 (LG^−=Cl^−) in N2 saturated 17% H2O in CH3CN containing 100 mM phosphate buffer at pH 7 was irradiated with a 450 W Hanovia medium pressure mercury lamp with a Pyrex filter for 90 min. The photoproduct was isolated by filtration. The photoproduct was washed with H2O and a small amount of CHCl3 and dried under vacuum. The product was a yellow powder, mp >300° C. […] A COSY spectrum in d6-DMSO was obtained (see Supporting Information).
# A 0.010 M solution of 13 (LG^−=Cl^−) in N2 saturated 75% H2O in CH3CN containing 100 mM phosphate buffer at pH 7 was irradiated with a 450 W Hanovia medium pressure mercury lamp with Pyrex filter for 90 min. The photolysate was acidified to pH 2 with conc. HCl to precipitate the photoproduct carboxylic acid 27. The photoproduct was obtained by filtration, washing with H2O, and drying under vacuum, as a yellow powder, mp >300° C.
# A 0.010 M solution of 7 (LG^−=Cl^−) in N2 saturated 17% H2O in CH3CN containing 100 mM phosphate buffer at pH 7 was irradiated with a 450 W Hanovia medium pressure mercury lamp with a Pyrex filter for 90 min. The photoproduct was isolated by filtration as a mixture of two isomers, 30, 31. The mixture of product isomers was dissolved in hot DMSO. Solid photoproduct isomer 31 was obtained upon cooling of the hot DMSO and filtration. Photoproduct isomer 31 was washed with water and methanol and dried under vacuum to obtain 31 as floppy powder, mp >300° C. Solid photoproduct isomer 30 was obtained upon addition of water to the above DMSO filtrate by filtration, after washing with water and methanol. The photoproduct isomer 30 was crystallized from CHCl3 to give a yellow crystalline solid, mp 271-273° C. […]
# Absorption spectra = conditions: aqueous dioxane or acetonitrile
# Experimental: as §1
# (§3) Photoproduct 26 was identified by ^1H NMR spectroscopy and elemental analysis. […] Regioisomer 28 would have shown only four vicinal couplings in the COSY spectrum. […] The compound was obtainable only as a powder, despite repeated attempts to obtain crystals for structure determination using X-ray diffraction.
# [2] = Photolysis with 120 W sunlamp for 72 h; conditions: gives exclusively product 26 or 27
# Experimental: The photolyses of ester 8 (LG^−=Cl^−) and acids 9 (LG^−=Cl^−, PhS^−, HS^−, PhCH2S) were repeated with a 120 W sunlamp for 72 h under otherwise the same conditions described above for the Hanovia runs.
# [3] = Stern-Volmer quenching of the photoreaction by piperylene
# Description: In air-saturated solution quantum yields for ester 8 (LG^−=Cl^−) decreased to Φ=0.019. […] Furthermore, quenching by 9.2-37×10^−[…] piperylene as quencher Q gave a slope kqτ=7.03×10^4 M^−1 for a Stern-Volmer plot Φ°/Φ vs. [Q](data not shown). If it is assumed that kq=ca. 10^10 M^−1 s^−1, then τ would be ca. 7 μs.
# [4] = Product quantum yield determination for photochemical leaving group expulsion at 390 nm
# Experimental: as §1
# A semi-micro optical bench was used for quantum yield determinations, similar to the apparatus described by Zimmerman.^32 Light from a 200 W high-pressure mercury lamp was passed through an Oriel monochromator, which was set to 390 nm wavelengths. The light was collimated through a lens. A fraction of the light was diverted 90° by a beam splitter to a 10×3.6 cm side quartz cylindrical cell containing an actinometer. The photolysate was contained in a 10×1.8 cm quartz cylindrical cell of 25 mL volume. The concentrations of the reactants were 0.0018-0.0030 M. All quantum yields reported herein were the average of two or more independent runs. Behind the photolysate was mounted a quartz cylindrical cell containing 25 mL of actinometer. Light output was monitored by ferrioxalate actinometery using the splitting ratio technique.
# For 7 (LG^−=Cl^−), 8 (LG^−=Cl^−), and 10 (LG^−=Cl^−) 50 mL of water was added to the photolysate, and the diluted photolysate was extracted four times with 30 mL of CH2Cl2. The combined extracts were washed twice with 30 mL water, brine, and concentrated in vacuo. The residue was dissolved in d6-DMSO. DMF was added as a standard for NMR analyses (vide infra). However, for 7 (LG^−=Cl^−) the NMR solvent was CDCl3 and the NMR standard was DMSO.
# For 9 (LG^−=Cl^−, PhS^−, HS^−, PhCH2S^−) the photolysate was adjusted to pH 2 by addition of 3 N HCl. The resultant precipitate was collected by suction filtration and washed with 50 mL water. The precipitate was transferred to a flask, and any untransferred precipitate was dissolved in DMSO and combined with the transferred precipitate. The DMSO was evaporated to dryness under vacuum and DMSO-d6 was added along with DMF as a standard for NMR analysis.
# Products were analyzed by ^1H NMR spectroscopy using DMF or DMSO as the internal standard and conversions were 12-16%. At the concentrations used most of the incident light would have been absorbed near the front face of the photolysis cell, raising the concern that the photoproducts formed during the photolyses could competitively absorb the incident light, reducing the light absorbed by the reactants. This internal filter effect would depress the observed Φ values below the actual values. In the case of 8 (LG^−=Cl^−) the Φ was thus redetermined at an 18-fold lower concentration of 1.0×10^−4 M of reactant and found to be within experimental error of the value obtained at higher concentration at 14% conversions for duplicate runs. Due to the very low concentrations of the photoproduct 26 formed, it had to be quantified by absorption spectroscopy of the exposed photolysates without any workup. The product absorption at 432 nm was deconvoluted from the tailing absorption of reactant using Origin 8.6 software (OriginLab). After deconvolution, concentrations were obtained from a calibration curve constructed from known mixtures of reactant and product.
# [5] = Solubility observations on photoproducts
# Experimental: as §3, §2
# A 0.010 M solution of 8 (LG^−=Cl^−) in N2 saturated 17% H2O in CH3CN containing 100 mM phosphate buffer at pH 7 was irradiated with a 450 W Hanovia medium pressure mercury lamp with a Pyrex filter for 90 min. […]
smiles,measurement,setting,value
"COC(=O)c1ccc2c(Cl)c(C(=O)N(C)c3ccc4sc5ccccc5c(=O)c4c3)sc2c1 [8 (LG^−=Cl^−), 3-chloro-2-[methyl-(9-oxo-9H-thiozanthen-2-yl)-carbamoyl]-benzo[b]thiophene-6-carboxylic acid methyl ester]",chemical yield of leaving group expulsion / photoproduct formation in preparative photolysis,[1],nearly quantitative
same,ε at absorption maximum,Absorption spectra; 385 nm,5600 M⁻¹ cm⁻¹
same,absorption maximum,Absorption spectra,385 nm
same,leaving group expulsion with sunlamp,[2],essentially quantitatively
same,Stern-Volmer slope kqτ,"[3]; 9.2-37×10^−6 M piperylene as quencher, plot Φ°/Φ vs. [Q]",70300 M⁻¹
same,triplet excited state lifetime τ,[3]; assuming kq=ca. 10^10 M^−1 s^−1,ca. 7 μs
same,product quantum yield Φ,"[4]; 390 nm, N2 saturated 19% H2O in dioxane containing 100 mM buffer (1.8×10^−3 M for 8; similar conditions for 7), products quantified by NMR",0.039
same,quantum yield Φ for photoproduct 26,"[4]; 390 nm, reactant concentration 1.0×10^−4 M, photoproduct quantified by absorption spectroscopy",0.037
same,quantum yield Φ,[4]; air-saturated solution,0.019
same,"quantum yields for reaction (photorelease of leaving group), overall",[4]; depending on LG^− basicity or reactant concentration,0.037-0.039
Cn1c(=O)c2sc3ccccc3c2c2cc3sc4ccccc4c(=O)c3cc21 [compound 31],solubility,"[5]; in DMSO-d6, 13C-NMR could not be obtained",low solubility
"COC(=O)c1ccc2c(c1)sc1c(=O)n(C)c3cc4c(=O)c5cc(Br)ccc5sc4cc3c12 [compound 32, 6-methylcarboxylate-[1]benzothiopheno[2,3-c]benzo[a]anthracene-10-bromo-4-methyl-4H-7-thia-4-aza-3,12-dione]",solubility,[5],low solubility
